In ChEMBL document CHEMBL5055656, “Synthesis of novel indole-thiazolidinone hybrid structures as promising scaffold with anticancer potential” (Bioorg Med Chem, 2021):
Calls of active or inactive are those of the source. The calls are words filed in the database; no cut-off is given here.

Tests used:
MCF7 [1] = assay: Cytotoxicity against human MCF7 cells assessed as cell growth inhibition measured after 72 hrs by MTT assay; assay type: functional
[2] = (§1) Cytotoxicity against mouse BALB/3T3 cells assessed as cell growth inhibition measured after 72 hrs by coomassie brilliant blue staining based total cellular protein assay; details: BALB/3T3 cells
BALB/3T3 [3] = assay: as §1; details: balb/3t3, 72 h
HepG2 [4] = assay: Induction of cell cycle arrest in human HepG2 cells assessed as effect on phospho-Chk2 expression at 45 uM measured after 24 hrs by Western blot analysis; assay type: functional, cell-based
[5] = (§2) Cytotoxicity against mouse BALB/3T3 cells assessed as cell growth inhibition measured after 48 hrs by LDH assay; assay type: cell-based; details: BALB/3T3 cells
BALB/3T3 [6] = assay: as §2; assay type: cell-based; details: balb/3t3, 48 h
HepG2 [7] = assay: Cytotoxicity against human HepG2 cells assessed as cell growth inhibition measured after 24 hrs by neutral red uptake assay; assay type: functional
HepG2 [8] = assay: Induction of apoptosis in human HepG2 cells assessed as increase in Bax expression at 45 uM after 24 hrs by Western blot analysis; assay type: functional, cell-based
[9] = Selectivity index, ratio of GI50 for human HaCaT cells to GI50 for human HeLa cells; assay type: toxicity; details: HaCaT cells versus HeLa cells, read-out: RatioGI50
HepG2 [10] = assay: Cytotoxicity against human HepG2 cells assessed as cell growth inhibition measured after 72 hrs by neutral red uptake assay; assay type: functional
HepG2 [11] = assay: Induction of apoptosis in human HepG2 cells assessed as activation of cleaved PARP1 expression at 0.7 uM incubated for 24 hrs by Western blot analysis; assay type: functional, cell-based
[12] = Selectivity index, ratio of GI50 for human HaCaT cells to GI50 for human HepG2 cells; assay type: toxicity; details: HaCaT cells versus HepG2 cells, read-out: RatioGI50
[13] = Selectivity index, ratio of GI50 for mouse BALA/3T3 cells to GI50 for human HepG2 cells measured after 48 hrs by coomassie brilliant blue staining based total cellular protein assay; assay type: toxicity; details: BALA/3T3 cells versus HepG2 cells, read-out: Selectivity Index
Salmon testes DNA = assay: Displacement of methyl green from salmon sperm DNA at 10 uM measured after 2 hrs by fluorescence plate reader method relative to control; assay type: cell-based; details: Salmo salar, Spermatozoa
[14] = Selectivity index, ratio of GI50 for mouse BALA/3T3 cells to GI50 for human HepG2 cells measured after 24 hrs by LDH assay; assay type: toxicity; details: BALA/3T3 cells versus HepG2 cells, read-out: Selectivity Index
HeLa = assay: Cytotoxicity against human HeLa cells assessed as cell growth inhibition measured after 72 hrs by MTT assay; assay type: functional
THP-1 = assay: Cytotoxicity against human THP-1 cells assessed as cell growth inhibition measured after 72 hrs by MTT assay; assay type: functional
HepG2 [15] = assay: Induction of apoptosis in human HepG2 cells assessed as activation of cleaved caspase 3 expression at 0.7 uM incubated for 24 hrs by Western blot analysis; assay type: functional, cell-based
BALB/3T3 [16] = assay: Induction of DNA damage in mouse BALB/3T3 cells assessed as increase in olive tail moment incubated at 55 uM measured after 24 hrs by alkaline Comet assay; assay type: cell-based; details: balb/3t3, 24 h
MCF7 [17] = assay: Induction of apoptosis in human MCF7 cells assessed as decrease in Cdk2 expression at 45 uM after 24 hrs by Western blot analysis; assay type: functional, cell-based
[18] = Selectivity index, ratio of GI50 for mouse BALA/3T3 cells to GI50 for human HepG2 cells measured after 72 hrs by neutral red uptake assay; assay type: toxicity; details: BALA/3T3 cells versus HepG2 cells, read-out: Selectivity Index
HepG2 [19] = assay: Cytotoxicity against human HepG2 cells assessed as cell growth inhibition measured after 48 hrs by LDH assay; assay type: functional
[20] = (§3) Cytotoxicity against mouse BALB/3T3 cells assessed as cell growth inhibition measured after 72 hrs by LDH assay; assay type: cell-based; details: BALB/3T3 cells
BALB/3T3 [21] = assay: as §3; assay type: cell-based; details: balb/3t3, 72 h
[22] = Selectivity index, ratio of GI50 for mouse BALA/3T3 cells to GI50 for human MCF7 cells; assay type: toxicity; details: BALA/3T3 cells versus MCF7 cells, read-out: RatioGI50
[23] = Selectivity index, ratio of GI50 for mouse BALA/3T3 cells to GI50 for human HepG2 cells measured after 48 hrs by neutral red uptake assay; assay type: toxicity; details: BALA/3T3 cells versus HepG2 cells, read-out: Selectivity Index
HepG2 [24] = assay: Cytotoxicity against human HepG2 cells assessed as cell growth inhibition measured after 72 hrs by coomassie brilliant blue staining based total cellular protein assay; assay type: functional
[25] = Selectivity index, ratio of GI50 for mouse BALA/3T3 cells to GI50 for human HeLa cells; assay type: toxicity; details: BALA/3T3 cells versus HeLa cells, read-out: RatioGI50
[26] = (§4) Cytotoxicity against mouse BALB/3T3 cells assessed as cell growth inhibition measured after 48 hrs by MTT assay; assay type: cell-based; details: BALB/3T3 cells
BALB/3T3 [27] = assay: as §4; assay type: cell-based; details: balb/3t3, 48 h
[28] = (§5) Cytotoxicity against mouse BALB/3T3 cells assessed as cell growth inhibition measured after 48 hrs by coomassie brilliant blue staining based total cellular protein assay; details: BALB/3T3 cells
BALB/3T3 [29] = assay: as §5; details: balb/3t3, 48 h
HCT-116 [30] = assay: Induction of DNA damage in human HCT-116 cells assessed as increase in tail length incubated at 0.7 uM measured after 24 hrs by alkaline Comet assay relative to control; assay type: functional
[31] = (§6) Cytotoxicity against mouse BALB/3T3 cells assessed as cell growth inhibition measured after 48 hrs by neutral red uptake assay; assay type: cell-based; details: BALB/3T3 cells
BALB/3T3 [32] = assay: as §6; assay type: cell-based; details: balb/3t3, 48 h
[33] = Selectivity index, ratio of GI50 for mouse BALA/3T3 cells to GI50 for human HepG2 cells measured after 24 hrs by coomassie brilliant blue staining based total cellular protein assay; assay type: toxicity; details: BALA/3T3 cells versus HepG2 cells, read-out: Selectivity Index
[34] = Selectivity index, ratio of GI50 for mouse BALA/3T3 cells to GI50 for human HepG2 cells measured after 72 hrs by coomassie brilliant blue staining based total cellular protein assay; assay type: toxicity; details: BALA/3T3 cells versus HepG2 cells, read-out: Selectivity Index
HepG2 [35] = assay: Induction of apoptosis in human HepG2 cells assessed as increase in Cdk2 expression at 45 uM after 24 hrs by Western blot analysis; assay type: functional, cell-based
MCF7 [36] = assay: Induction of cell cycle arrest in human MCF7 cells assessed as decrease in phospho-Rb expression at 45 uM measured after 24 hrs by Western blot analysis; assay type: functional, cell-based
WM793 = assay: Cytotoxicity against human WM793 cells assessed as cell growth inhibition measured after 72 hrs by MTT assay; assay type: functional
HCT-116 [37] = assay: Induction of DNA damage in human HCT-116 cells assessed as increase in olive tail moment incubated at 0.7 uM measured after 24 hrs by alkaline Comet assay; assay type: functional
HepG2 [38] = assay: Cytotoxicity against human HepG2 cells assessed as cell growth inhibition measured after 24 hrs by MTT assay; assay type: functional
MCF7 [39] = assay: Induction of DNA damage in human MCF7 cells assessed as increase in tail length incubated at 0.7 uM measured after 24 hrs by alkaline Comet assay; assay type: functional, cell-based

COC(=O)c1[nH]c2ccc(F)cc2c1/C=C1\SC(=S)NC1=O
GI50 (MCF7 [1]): 700 nM
GI50 at 72 h [2]: 48.3 µM
GI20 (BALB/3T3 [3]): 1.6 µM
GI80 (BALB/3T3 [3]): > 100 µM
Activity (HepG2 [4]): inactive
GI50 at 48 h [5]: 89.7 µM
GI20 (BALB/3T3 [6]): 16.4 µM
GI80 (BALB/3T3 [6]): > 100 µM
GI20 (HepG2 [7]): 2.4 µM
GI80 (HepG2 [7]): 80.7 µM
GI50 (HepG2 [7]; Homo sapiens, HepG2): 40.1 µM
Activity (HepG2 [8]): Active
selectivity ratio [9]: 1.41
GI20 (HepG2 [10]): <0.01 µM
GI80 (HepG2 [10]): 59.6 µM
GI50 (HepG2 [10]; Homo sapiens, HepG2): 7.5 µM
Activity (HepG2 [11]): Active
selectivity ratio [12]: 5.75
selectivity ratio at 48 h [13]: 2
Activity (Salmon testes DNA): 5.4%
selectivity ratio at 24 h [14]: 323
GI50 (HeLa): 49.3 µM
GI50 (THP-1): 62.4 µM
Activity (HepG2 [15]): Active
Activity (BALB/3T3 [16]): 3.5
Activity (MCF7 [17]): Active
selectivity ratio at 72 h [18]: 8.9
GI20 (HepG2 [19]): <0.01 µM
GI80 (HepG2 [19]): 16.2 µM
GI50 (HepG2 [19]; Homo sapiens, HepG2): 60 nM
GI50 at 72 h [20]: 62.8 µM
GI20 (BALB/3T3 [21]): 2.9 µM
GI80 (BALB/3T3 [21]): > 100 µM
selectivity ratio [22]: 99.4
selectivity ratio at 48 h [23]: 4.1
GI20 (HepG2 [24]): 0.08 µM
GI80 (HepG2 [24]): >100 µM
GI50 (HepG2 [24]; Homo sapiens, HepG2): 35.6 µM
selectivity ratio [25]: 1.41
GI50 at 48 h [26]: 25 µM
GI20 (BALB/3T3 [27]): 0.8 µM
GI80 (BALB/3T3 [27]): 84.8 µM
GI50 at 48 h [28]: > 100 µM
GI20 (BALB/3T3 [29]): 3.7 µM
GI80 (BALB/3T3 [29]): > 100 µM
Activity (HCT-116 [30]): 16.1%
GI50 at 48 h [31]: > 100 µM
GI20 (BALB/3T3 [32]): 2.4 µM
GI80 (BALB/3T3 [32]): > 100 µM
selectivity ratio at 24 h [33]: 1
selectivity ratio at 72 h [34]: 3
Activity (HepG2 [35]): Active
Activity (MCF7 [36]): Active
GI50 (WM793): 80.4 µM
Activity (HCT-116 [37]): 3.1
GI20 (HepG2 [38]): 3 µM
GI80 (HepG2 [38]): 95.6 µM
GI50 (HepG2 [38]; Homo sapiens, HepG2): 44.7 µM
Activity (MCF7 [39]): Active
